From patent US5906930A, “Para-nitrobenzyl esterases with enhanced activity in aqueous and nonaqueous media” (California Institute of Technology, priority 1998, dated 1999) come the findings set out here.

Positions count from the first letter of the chain named.

Experiment [1] addresses T1, Bacillus subtilis para-nitrobenzyl esterase variant 4-43E7 (3-10C4 substitutions + L334V and one further substitution), SEQ. ID. NO. 12 (Bacillus subtilis, UniProt P37967, H322R/L144M/L334V/M358V/S94G/Y370F).
T1 sequence (P37967 1-489 K23L/S59P/S94G/K95Q/L144M/N150D/S230A/G242S/K246R/S251A/A291S/H322R/L334V/V343A/M358V/Y370F/K390E/L463V): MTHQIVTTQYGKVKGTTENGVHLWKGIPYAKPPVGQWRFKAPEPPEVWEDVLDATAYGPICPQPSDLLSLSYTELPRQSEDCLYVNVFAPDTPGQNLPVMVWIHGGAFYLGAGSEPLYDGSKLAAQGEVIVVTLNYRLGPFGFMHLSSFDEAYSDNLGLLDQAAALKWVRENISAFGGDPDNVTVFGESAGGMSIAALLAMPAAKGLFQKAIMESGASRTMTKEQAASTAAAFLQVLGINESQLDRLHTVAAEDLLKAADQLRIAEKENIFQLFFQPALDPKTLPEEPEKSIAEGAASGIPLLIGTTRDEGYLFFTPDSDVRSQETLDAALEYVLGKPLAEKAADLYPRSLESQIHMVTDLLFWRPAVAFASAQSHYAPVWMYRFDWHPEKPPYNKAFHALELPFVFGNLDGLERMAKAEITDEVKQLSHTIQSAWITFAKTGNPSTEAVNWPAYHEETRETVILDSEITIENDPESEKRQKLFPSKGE
Kind of experiment: Kinetic assays of purified pNB esterase (ester hydrolysis). It is filed as biochemical. Set-up: unit not given beside the values. Particulars: 0.1M PIPES pH 7.0, 30° C. Here is the method: (§1) Bacteria expressing seven pNB esterases, 0-WT (SEQ. ID. NO. 2), 1-1H9, 2-19E10, 3-10C4, 4-38B9, 4-43E7, and 4-54B9, were grown in one liter cultures and the enzymes were purified. These purified enzymes were assayed for their ability to hydrolyze the different ester substrates in the presence of various concentrations of DMF. FIGS. 8a, b and c show the specific reaction rates on pNPA as a function of pNPA substrate concentration for this series of evolved variants from the four generations of mutagenesis and screening. […] The wild type enzyme outperforms 1-1H9 in purely aqueous buffer (FIG. 8a). The actual screening, however, was performed in the presence of DMF, and in 15 and 30% DMF, 1-1H9 has higher specific activity towards pNPA than wild type (FIGS. 8b and 8c). Similar trends are seen for the remaining variants assayed on this substrate. […] In 30% DMF, wild type drops still further relative to the pNB esterase variants. Variants 4-38B9 and 4-43E7, presumably by, virtue of having been screened in DMF for four rounds of mutagenesis, are the best performers in 30% DMF.
(§2) DMF dramatically increases KM while also decreasing kcat. For the LCN substrates, the mutations accumulated during directed evolution mitigate the increased KM. The effects on kcat, however, are more prominent: kcat increases more than 9-fold from wild type to 4-54B9 in 15% DMF, while KM decreases by less than a factor of two on LCN-pNB. […] At substrate concentrations […], increased specific activity will result mainly from improvements in kcat. These improvements are obviously the most useful for enzymes intended to be used for transformations in high substrate concentrations.
(§3) Kinetic assays were performed on three substrates: pNPA, LCN-pNP, and p-nitrobenzyl loracarbef nucleus (LCN-pNB). For pNPA and LCN-pNP substrates, final concentrations varying from 0.0625 mM to 16 mM and 0, 15, and 30% DMF in 0.1M PIPES (Sigma), pH 7.0 were combined with equal volumes of enzyme samples. These samples were mixed simultaneously in a 96 well plate and monitored with the 96 well plate reader. The absorbance values were recorded, linearly regressed, and then used for calculating kinetic parameters. For the LCN-pNB substrate, final concentrations varying from 0.0156 mM to 8.0 mM and 0, 15 and 30% DMF in PIPES, pH 7.0 were combined with enzyme samples in a quartz cuvette and were measured in a spectrophotometer at 289 nm. All assays were measured in triplicate.

Experiment [2] concerns the target T2, Bacillus subtilis para-nitrobenzyl esterase variant 4-54B9 (3-10C4 substitutions + L334S and one further substitution), SEQ. ID. NO. 14 (Bacillus subtilis, UniProt P37967, H322R/K267R/L144M/L334S/M358V/Y370F).
T2 sequence (P37967 1-489 K23L/S59P/K95Q/L144M/N150D/S230A/G242S/K246R/S251A/K267R/A291S/H322R/L334S/V343A/M358V/Y370F/K390E/L463V): T1 sequence (P37967 1-489 K23L/S59P/S94G/K95Q/L144M/N150D/S230A/G242S/K246R/S251A/A291S/H322R/L334V/V343A/M358V/Y370F/K390E/L463V) with G94S, K267R, V334S
Described as above. Type of experiment: biochemical. The settings on record: 0.1M PIPES pH 7.0, 30° C. Set-up: unit not given beside the values. Here is the method: as §1, §2, §3

The mark [3] stands for this setting: substrate p-nitrophenyl loracarbef nucleus, 0% DMF.
Where [4] appears, read: substrate p-nitrophenyl loracarbef nucleus, 15% DMF.
The mark [5] stands for this setting: substrate p-nitrophenyl loracarbef nucleus, 30% DMF.
Setting [6] is: substrate p-nitrobenzyl loracarbef nucleus, 0% DMF.
[7] abbreviates: substrate p-nitrobenzyl loracarbef nucleus, 15% DMF.

Regarding `NC1C(=O)N2C(C(=O)Oc3ccc([N+](=O)[O-])cc3)=C(Cl)CCC12` (stereo not shown) [p-nitrophenyl loracarbef nucleus], the kcat is reported as 0.67 in experiment [1] (setting [3]); 0.40 in experiment [1] (setting [4]); 0.094 in experiment [1] (setting [5]); 1.44 in experiment [2] (setting [3]); 0.93 in experiment [2] (setting [4]); 0.141 in experiment [2] (setting [5]).

In the case of `NC1C(=O)N2C(C(=O)OCc3ccc([N+](=O)[O-])cc3)=C(Cl)CCC12` (stereo not shown) [p-nitrobenzyl loracarbef nucleus], the kcat in experiment [1] (setting [6]) worked out at 9.13; in experiment [1] (setting [7]), 3.02; in experiment [2] (setting [6]), 18.96; in experiment [2] (setting [7]), 6.84.
